Experiments:
Type in all cases: functional
Conditions in all cases: read-out: GI
SR = experiment: Growth inhibition of human SR cells at 10 uM incubated for 48 hrs by sulforhodamine B assay relative to control
LOX IMVI = experiment: Growth inhibition of human LOX IMVI cells at 10 uM incubated for 48 hrs by sulforhodamine B assay relative to control
MDA-MB-231 = experiment: Growth inhibition of human MDA-MB-231 cells at 10 uM incubated for 48 hrs by sulforhodamine B assay relative to control
SK-MEL-5 = experiment: Growth inhibition of human SK-MEL-5 cells at 10 uM incubated for 48 hrs by sulforhodamine B assay relative to control
U-251 = experiment: Growth inhibition of human U-251 cells at 10 uM incubated for 48 hrs by sulforhodamine B assay relative to control
MOLT-4 = experiment: Growth inhibition of human MOLT-4 cells at 10 uM incubated for 48 hrs by sulforhodamine B assay relative to control
BT-549 = experiment: Growth inhibition of human BT-549 cells at 10 uM incubated for 48 hrs by sulforhodamine B assay relative to control
PC-3 = experiment: Growth inhibition of human PC-3 cells at 10 uM incubated for 48 hrs by sulforhodamine B assay relative to control
OVCAR-4 = experiment: Growth inhibition of human OVCAR-4 cells at 10 uM incubated for 48 hrs by sulforhodamine B assay relative to control
CCRF-CEM = experiment: Growth inhibition of human CCRF-CEM cells at 10 uM incubated for 48 hrs by sulforhodamine B assay relative to control
NCI-H23 = experiment: Growth inhibition of human NCI-H23 cells at 10 uM incubated for 48 hrs by sulforhodamine B assay relative to control
A549 = experiment: Growth inhibition of human A549/ATCC cells at 10 uM incubated for 48 hrs by sulforhodamine B assay relative to control
NCI-H322M = experiment: Growth inhibition of human NCI-H322M cells at 10 uM incubated for 48 hrs by sulforhodamine B assay relative to control
MDA-MB-435 = experiment: Growth inhibition of human MDA-MB-435 cells at 10 uM incubated for 48 hrs by sulforhodamine B assay relative to control
NCI-H460 = experiment: Growth inhibition of human NCI-H460 cells at 10 uM incubated for 48 hrs by sulforhodamine B assay relative to control
UACC-62 = experiment: Growth inhibition of human UACC-62 cells at 10 uM incubated for 48 hrs by sulforhodamine B assay relative to control
OVCAR-8 = experiment: Growth inhibition of human OVCAR-8 cells at 10 uM incubated for 48 hrs by sulforhodamine B assay relative to control
SF-295 = experiment: Growth inhibition of human SF-295 cells at 10 uM incubated for 48 hrs by sulforhodamine B assay relative to control
SK-OV-3 = experiment: Growth inhibition of human SK-OV-3 cells at 10 uM incubated for 48 hrs by sulforhodamine B assay relative to control
SF-539 = experiment: Growth inhibition of human SF-539 cells at 10 uM incubated for 48 hrs by sulforhodamine B assay relative to control
786-0 = experiment: Growth inhibition of human 786-0 cells at 10 uM incubated for 48 hrs by sulforhodamine B assay relative to control
HOP-62 = experiment: Growth inhibition of human HOP-62 cells at 10 uM incubated for 48 hrs by sulforhodamine B assay relative to control
ACHN = experiment: Growth inhibition of human ACHN cells at 10 uM incubated for 48 hrs by sulforhodamine B assay relative to control
M14 = experiment: Growth inhibition of human M14 cells at 10 uM incubated for 48 hrs by sulforhodamine B assay relative to control
K562 = experiment: Growth inhibition of human K562 cells at 10 uM incubated for 48 hrs by sulforhodamine B assay relative to control
TK-10 = experiment: Growth inhibition of human TK-10 cells at 10 uM incubated for 48 hrs by sulforhodamine B assay relative to control
DU-145 = experiment: Growth inhibition of human DU-145 cells at 10 uM incubated for 48 hrs by sulforhodamine B assay relative to control
HCT-116 = experiment: Growth inhibition of human HCT-116 cells at 10 uM incubated for 48 hrs by sulforhodamine B assay relative to control
MCF7 = experiment: Growth inhibition of human MCF7 cells at 10 uM incubated for 48 hrs by sulforhodamine B assay relative to control
COLO 205 = experiment: Growth inhibition of human COLO 205 cells at 10 uM incubated for 48 hrs by sulforhodamine B assay relative to control
Hs-578T = experiment: Growth inhibition of human Hs-578T cells at 10 uM incubated for 48 hrs by sulforhodamine B assay relative to control
UO-31 = experiment: Growth inhibition of human UO-31 cells at 10 uM incubated for 48 hrs by sulforhodamine B assay relative to control
HL-60(TB) = experiment: Growth inhibition of human HL-60(TB) cells at 10 uM incubated for 48 hrs by sulforhodamine B assay relative to control
RXF 393 = experiment: Growth inhibition of human RXF 393 cells at 10 uM incubated for 48 hrs by sulforhodamine B assay relative to control
NCI-H226 = experiment: Growth inhibition of human NCI-H226 cells at 10 uM incubated for 48 hrs by sulforhodamine B assay relative to control
KM12 = experiment: Growth inhibition of human KM12 cells at 10 uM incubated for 48 hrs by sulforhodamine B assay relative to control
HT-29 = experiment: Growth inhibition of human HT-29 cells at 10 uM incubated for 48 hrs by sulforhodamine B assay relative to control
NCI/ADR-RES = experiment: Growth inhibition of human NCI/ADR-RES cells at 10 uM incubated for 48 hrs by sulforhodamine B assay relative to control
IGROV-1 = experiment: Growth inhibition of human IGROV-1 cells at 10 uM incubated for 48 hrs by sulforhodamine B assay relative to control
NCI-H522 = experiment: Growth inhibition of human NCI-H522 cells at 10 uM incubated for 48 hrs by sulforhodamine B assay relative to control
SN12C = experiment: Growth inhibition of human SN12C cells at 10 uM incubated for 48 hrs by sulforhodamine B assay relative to control
CAKI-1 = experiment: Growth inhibition of human CAKI-1 cells at 10 uM incubated for 48 hrs by sulforhodamine B assay relative to control
OVCAR-3 = experiment: Growth inhibition of human OVCAR-3 cells at 10 uM incubated for 48 hrs by sulforhodamine B assay relative to control
MDA-MB-468 = experiment: Growth inhibition of human MDA-MB-468 cells at 10 uM incubated for 48 hrs by sulforhodamine B assay relative to control

Compound: O=C(CNc1ccc(Cl)cc1)Nc1ccc(-c2nc3ccccc3s2)cc1
- inhibition of growth at 10 µM (SR): 88.5%
- inhibition of growth at 10 µM (LOX IMVI): 141%
- inhibition of growth at 10 µM (MDA-MB-231): 62.4%
- inhibition of growth at 10 µM (SK-MEL-5): 75%
- inhibition of growth at 10 µM (U-251): 73.7%
- inhibition of growth at 10 µM (MOLT-4): 95.6%
- inhibition of growth at 10 µM (BT-549): 83.3%
- inhibition of growth at 10 µM (PC-3): 14.7%
- inhibition of growth at 10 µM (OVCAR-4): 76.9%
- inhibition of growth at 10 µM (CCRF-CEM): 96.8%
- inhibition of growth at 10 µM (NCI-H23): 60.9%
- inhibition of growth at 10 µM (A549): 11%
- inhibition of growth at 10 µM (NCI-H322M): 19.7%
- inhibition of growth at 10 µM (MDA-MB-435): 37.2%
- inhibition of growth at 10 µM (NCI-H460): 12.9%
- inhibition of growth at 10 µM (UACC-62): 69.9%
- inhibition of growth at 10 µM (OVCAR-8): 33.6%
- inhibition of growth at 10 µM (SF-295): 5.37%
- inhibition of growth at 10 µM (SK-OV-3): 10.2%
- inhibition of growth at 10 µM (SF-539): 21.9%
- inhibition of growth at 10 µM (786-0): 73%
- inhibition of growth at 10 µM (HOP-62): -16.2%
- inhibition of growth at 10 µM (ACHN): 77.2%
- inhibition of growth at 10 µM (M14): 55.8%
- inhibition of growth at 10 µM (K562): 88.1%
- inhibition of growth at 10 µM (TK-10): -18.4%
- inhibition of growth at 10 µM (DU-145): 29.8%
- inhibition of growth at 10 µM (HCT-116): 76.7%
- inhibition of growth at 10 µM (MCF7): 88.5%
- inhibition of growth at 10 µM (COLO 205): 53%
- inhibition of growth at 10 µM (Hs-578T): 15.9%
- inhibition of growth at 10 µM (UO-31): 35%
- inhibition of growth at 10 µM (HL-60(TB)): 29%
- inhibition of growth at 10 µM (RXF 393): 15.8%
- inhibition of growth at 10 µM (NCI-H226): 41.9%
- inhibition of growth at 10 µM (KM12): 19.3%
- inhibition of growth at 10 µM (HT-29): 52.1%
- inhibition of growth at 10 µM (NCI/ADR-RES): 35.5%
- inhibition of growth at 10 µM (IGROV-1): 65.7%
- inhibition of growth at 10 µM (NCI-H522): 194%
- inhibition of growth at 10 µM (SN12C): 53.2%
- inhibition of growth at 10 µM (CAKI-1): 79.8%
- inhibition of growth at 10 µM (OVCAR-3): 71.1%
- inhibition of growth at 10 µM (MDA-MB-468): 111%

Compound: Cc1ccc(NCC(=O)Nc2ccc(-c3nc4ccccc4s3)cc2)cc1
- inhibition of growth at 10 µM (SR): 19.1%
- inhibition of growth at 10 µM (LOX IMVI): 22.8%
- inhibition of growth at 10 µM (MDA-MB-231): 22.3%
- inhibition of growth at 10 µM (SK-MEL-5): 11.3%
- inhibition of growth at 10 µM (U-251): 19.4%
- inhibition of growth at 10 µM (MOLT-4): 41.9%
- inhibition of growth at 10 µM (BT-549): 35.4%
- inhibition of growth at 10 µM (PC-3): 8.39%
- inhibition of growth at 10 µM (OVCAR-4): 14.5%
- inhibition of growth at 10 µM (CCRF-CEM): 60.1%
- inhibition of growth at 10 µM (NCI-H23): 16.4%
- inhibition of growth at 10 µM (A549): 13.8%
- inhibition of growth at 10 µM (NCI-H322M): 4.73%
- inhibition of growth at 10 µM (MDA-MB-435): -1.83%
- inhibition of growth at 10 µM (NCI-H460): -2.34%
- inhibition of growth at 10 µM (UACC-62): 14.5%
- inhibition of growth at 10 µM (OVCAR-8): 7.13%
- inhibition of growth at 10 µM (SF-295): -3.28%
- inhibition of growth at 10 µM (SK-OV-3): -13.1%
- inhibition of growth at 10 µM (SF-539): 2.9%
- inhibition of growth at 10 µM (786-0): 10.2%
- inhibition of growth at 10 µM (HOP-62): 3.62%
- inhibition of growth at 10 µM (ACHN): -6.82%
- inhibition of growth at 10 µM (M14): 3.66%
- inhibition of growth at 10 µM (K562): -0.15%
- inhibition of growth at 10 µM (TK-10): -7.12%
- inhibition of growth at 10 µM (DU-145): 5.52%
- inhibition of growth at 10 µM (HCT-116): 5.72%
- inhibition of growth at 10 µM (MCF7): 40.9%
- inhibition of growth at 10 µM (COLO 205): -3.48%
- inhibition of growth at 10 µM (Hs-578T): -3.42%
- inhibition of growth at 10 µM (UO-31): 37.5%
- inhibition of growth at 10 µM (HL-60(TB)): 18.2%
- inhibition of growth at 10 µM (RXF 393): 10.7%
- inhibition of growth at 10 µM (NCI-H226): 5.78%
- inhibition of growth at 10 µM (KM12): 0.91%
- inhibition of growth at 10 µM (HT-29): -6.9%
- inhibition of growth at 10 µM (NCI/ADR-RES): 2.16%
- inhibition of growth at 10 µM (IGROV-1): 7.63%
- inhibition of growth at 10 µM (NCI-H522): 12.3%
- inhibition of growth at 10 µM (SN12C): 11.1%
- inhibition of growth at 10 µM (CAKI-1): 0.82%
- inhibition of growth at 10 µM (OVCAR-3): 0.68%
- inhibition of growth at 10 µM (MDA-MB-468): 13%

Source: ChEMBL document CHEMBL4765227, “Hit to lead optimization of a series of N-[4-(1,3-benzothiazol-2-yl)phenyl]acetamides as monoacylglycerol lipase inhibitors with potential anticancer activity” (Eur J Med Chem, 2016)
